# From patent US10011813B2, “Methane oxidation methods and compositions” (California Institute of Technology, priority 2015, dated 2018)
# Where “and” joins values, the source holds several entries; their conditions need not be identical. Equal entries are not always repeated.
# Test system: methane seep sediment (ANME archaea)
# Assay: AOM rate measurement via 13C-methane (newly formed DIC) in methane seep sediment incubations
# Format: cell-based, ANME-2a and ANME-2c
# Conditions: for Rate relative to AOM with sulfate: 10 mM; for DIC formed: after 21-day incubation
# Source text: General description of methane oxidation measurements via ^13C-methane. Methane oxidation was quantified by determining the production of inorganic carbon (“CO2”). Accurate quantification of the concentration of inorganic carbon formed from methane oxidation is challenging due to 4 main reasons:
# A defined amount of added DIC in artificial, buffered seawater was used with a low calcium concentration to prevent carbonate precipitation (see medium composition). As ^13CH4 was the only ^13C-enriched carbon source added, the newly formed ^13C-DIC must be derived from methane. For low methane oxidation rates (less than ca. 5% relative to sulfate as the oxidant or electron acceptor), however, enzyme-catalyzed isotope exchange between methane and DIC, needs to be taken into account, because it contributes to ^13C enrichment of the DIC without net methane oxidation, resulting in an overestimation of net methane oxidation. […] Details of both methods, the ^13CH4 experiments and the standard addition are described herein.
# Incubation conditions for AOM rate measurement. Each incubation vial was set up with 1.0 cm^3 wet sediment (wet sediment=volume of sediment after allowing the sediment slurry settle for 48 h) in total slurry volume of […] as follows: Sterile serum vials were closed with butyl rubber stoppers (volume=12.9 ml after closing) and flushed with methane. 1.0 mL ^13CH4 (99% ^13C, Cambridge Isotope Laboratories, containing 0.05 vol % ^13CO2 as an impurity) was introduced anaerobically. 2.0 mL of artificial, anaerobic seawater containing 2.5× the target concentration of the corresponding electron acceptor was injected into the serum vial cooled on ice. For AQDS and 1,5-AQDS, this was a suspension corresponding to 25 mM (see TABLE 3).
# The 1 L pyrex bottle with the sediment in the sulfate-free medium (1 part wet sediment in 3 parts of slurry volume) was vigorously shaken each time and 3.0 mL of slurry immediately removed and injected into the individual serum bottles. Each stoppered serum vial was supplemented with unlabeled methane (0.250 MPa overpressure: pressure gauge SSI Technologies, Inc., Media Gauge™) shaken and stored inverted at 4° C. (final headspace: 0.35 MPa methane, with ca. 4% ^13CH4). The exact fractional abundance of ^13C in the methane was quantified via ^1H-NMR spectroscopy for individual incubations.
# AOM rate measurements (quantification of newly formed DIC based on ^13CH4). For ^13C-DIC analysis, 0.25 mL of the medium above the settled sediment in the microcosm was sampled with a disposable needle and syringe at each time point (same intervals for all experiments) and centrifuged (16000 rcf, 5 min). The supernatant was transferred into 0.6 mL eppendorf tubes, flash frozen in N2 (l), and stored at −20° C. until measurement. 150 μL of the thawed supernatant was then added to He-flushed vials containing 100 μL H3PO4 (85%). The resulting CO2 was analyzed for the isotopic enrichment (^13F(tn)) on a GC-IR-MS GasBench II (Thermo Scientific). The amount of DIC newly formed (Δ[DIC](tn), see FIG. 6B) was calculated from the measured ^13F (fractional abundance of ^13C), neglecting isotope effects on AOM according to Equation (1): Δ[DIC](tn)=[DIC](t0)*(^13F(tn)−^13F(t0))/(^13F(CH4)−^13F(tn)) (EQ. 1)
structure (smiles),measurement,setting,value
"O=C1c2ccc(S(=O)(=O)O)cc2C(=O)c2ccc(S(=O)(=O)O)cc21 [AQDS, 9,10-anthraquinone-2,6-disulfonate]",Rate relative to AOM with sulfate,no MoO4^2−,74%
same,Rate relative to AOM with sulfate,with 25 mM MoO4^2−,83%
same,DIC formed from 13C-methane per vial,"50 mmol AQDS (10 mM), no sulfate, 21-day incubation at 4° C.",approximately 12.5 mmol
same,DIC formed,AQDS 10 mM + MoO4^2− 25 mM,2.59 mM and 2.82 mM
same,DIC formed,"AQDS 10 mM, 4° C.",2.39 mM and 2.64 mM
same,initial rates of AOM compared with sulfate,"first 6 days, 4° C.",equivalent
